Source: the supplement of paper PMC10307832

Experiments:
IU1-47 + Foretinib = compound: CC1=CC(=C(N1C2=CC=C(C=C2)Cl)C)C(=O)CN3CCCCC3 [IU1-47] + COc1cc2c(Oc3ccc(NC(=O)C4(C(=O)Nc5ccc(F)cc5)CC4)cc3F)ccnc2cc1OCCCN1CCOCC1 [Foretinib] (partner 0.25 µM); assay: relative viability (nuclei count vs DMSO), 5 days (fraction); higher = more cells survive
Procedure, shortened: (§1)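 Lung cancer cell lines in 1536-well plates were dosed by pin tool the day after seeding, either with one drug alone or with a fixed anchor-drug dose plus five library-drug doses (not always all listed) in √10 steps. After 5 days, cells were fixed and their nuclei stained in one step (final 0.05% Triton X-100, 1% formaldehyde, 1 ug/ml Hoechst), then counted on 4× images. Relative viability is the nuclei count in treated wells divided by that in vehicle wells. Values are medians of duplicate plates.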

FG-4592 + Tozasertib = compound: Cc1nc(C(=O)NCC(=O)O)c(O)c2ccc(Oc3ccccc3)cc12 [FG-4592] + Cc1cc(Nc2cc(N3CCN(C)CC3)nc(Sc3ccc(NC(=O)C4CC4)cc3)n2)n[nH]1 [Tozasertib] (partner 0.1 µM); assay: as above
Procedure, shortened: as §1

| Cell Line | relative viability (IU1-47 + Foretinib; first compound 0.08 µM) | relative viability (IU1-47 + Foretinib; first compound 0.253 µM) | relative viability (IU1-47 + Foretinib; first compound 0.8 µM) | relative viability (IU1-47 + Foretinib; first compound 2.53 µM) | relative viability (IU1-47 + Foretinib; first compound 8 µM) | relative viability (FG-4592 + Tozasertib; first compound 0.08 µM) | relative viability (FG-4592 + Tozasertib; first compound 0.253 µM) | relative viability (FG-4592 + Tozasertib; first compound 0.8 µM) | relative viability (FG-4592 + Tozasertib; first compound 2.53 µM) | relative viability (FG-4592 + Tozasertib; first compound 8 µM) |
| --- | --- | --- | --- | --- | --- | --- | --- | --- | --- | --- |
| NCI-H1975 | 0.967 | 0.949 | 0.971 | 1.1 | 0.858 | 0.772 | 0.78 | 0.868 | 0.783 | 0.683 |
| CAL-12T | 1.12 | 1.1 | 1.13 | 1.11 | 1.03 | 0.335 | 0.267 | 0.312 | 0.293 | 0.29 |
| NCI-H1623 | 1.05 | 0.903 | 0.892 | 0.841 | 0.833 | 0.434 | 0.422 | 0.404 | 0.45 | 0.436 |
| HCC-44 | – | – | – | – | – | 1.08 | 0.84 | – | 0.783 | 0.852 |
| EKVX | 1.12 | 1.19 | 0.769 | 0.265 | 0.85 | 0.397 | 0.403 | 0.47 | 0.412 | 0.387 |
| NCI-H1651 | 0.946 | 0.869 | 0.903 | 0.787 | 0.973 | 0.773 | 0.653 | 0.742 | 0.629 | 0.569 |
| NCI-H1944 | 1.03 | 0.954 | 0.905 | 0.824 | 0.759 | 0.254 | 0.252 | 0.224 | 0.242 | 0.254 |
| NCI-H1703 | 0.342 | 0.315 | 0.278 | 0.377 | 0.361 | – | – | – | – | – |
| Calu-6 | 1 | 1.01 | 0.934 | 0.917 | 0.874 | – | – | – | – | – |
| EBC-1 | 0.0995 | 0.107 | 0.0951 | 0.111 | 0.102 | – | – | – | – | – |
| SW 1573 | 1.03 | 0.965 | 1.11 | 0.749 | 1.02 | 0.205 | 0.173 | 0.207 | 0.171 | 0.198 |
| A-427 | 1.08 | 1.16 | 1.22 | – | 0.93 | 0.21 | 0.223 | 0.201 | 0.206 | 0.224 |
| NCI-H2347 | 0.707 | 0.605 | 0.843 | 1.17 | 1.1 | 0.415 | – | 0.621 | 0.315 | 0.52 |
| NCI-H1355 | 1.06 | 1.06 | 0.946 | – | 0.998 | 0.525 | 0.551 | 0.55 | 0.573 | 0.521 |
| NCI-H358 | 0.828 | 0.628 | 0.863 | 0.652 | 0.658 | 0.106 | 0.111 | 0.115 | 0.113 | 0.091 |
| PC-3 [JPC-3] | 1.13 | 1.11 | 1.12 | 1.08 | 1.05 | 0.872 | 0.854 | 0.935 | 0.901 | 0.854 |
